Data as given in US6586427B2, “Treatments for nervous disorders” (Pharmacia & Upjohn Company, priority 1998, dated 2003).

Legend:
[1] = test system: I-adrenerigic receptors; assay: interaction with I-adrenergic receptors; type: binding
[2] = test system: dopamine uptake
[3] = test system: muscarinic cholinergic receptors; assay: interaction with muscarinic cholinergic receptors; type: binding
[4] = in vivo; cited from earlier work
[5] = test system: monoamine oxidase (MAO)
[6] = test system: norepinephrine uptake
[7] = test system: serotonin uptake

CCOc1ccccc1OC(c1ccccc1)C1CNCCO1 (stereo not shown) [Reboxetine]
interaction with I-adrenerigic receptors [1]: without showing any appreciable interaction
dopamine uptake inhibitory activity [2]: no dopamine uptake inhibitory activity
interaction with muscarinic cholinergic receptors [3]: without showing any appreciable interaction
effect in the 8-OH-DPAT hypothermia test [4]: ineffective
monoamine oxidase (MAO) inhibitory activity [5]: devoid of monoamine oxidase (MAO) inhibitory activity
norepinephrine uptake inhibitory activity [6]: highly selective norepinephrine uptake inhibitor
serotonin uptake inhibitory activity [7]: only marginal
